Legend:
[1] = tested on: SARS-2-S-driven cell entry; assay type: cell-based, SARS-CoV-2
[2] = tested on: SARS-CoV-2 isolate hCoV-19/Germany/FI1103201/2020; assay type: cell-based; details: PCLS from a single donor; Fig. 1C
[3] = across a 100-fold dose range; cohort of healthy subjects; cited from earlier work
[4] = blood and urine; cited from earlier work
[5] = in vivo; cited from earlier work

Compound	IC50 [1]	inhibitory effects in human PCLS [2]	SARS-CoV-2 cell entry is inhibited [1]	tolerability [3]	stability of ester and amide groups [4]	plasma distribution and elimination [5]
CN(C)C(=O)COC(=O)Cc1ccc(OC(=O)c2ccc(NC(=N)N)cc2)cc1 [Camostat, camostat]	151 nM	comparable	–	–	–	–
N=C(N)c1ccc2cc(OC(=O)c3ccc(N=C(N)N)cc3)ccc2c1 [Nafamostat, nafamostat]	11.8 nM	–	–	–	–	–
COC(=O)[C@H](Cc1cccc(C(=N)N)c1)[C@@H](C)NC(=O)c1ccc(-c2cc[n+]([O-])cc2)cc1 [Otamixaban, otamixaban]	18700 nM	comparable	36%	well tolerated	stable	rapid plasma distribution and elimination
